This is an account of results in EP2575807B1, “FORMULATION BASED ON SULPIRIDE AND A SYNERGISTIC HOMEOPATHIC COMPOSITION FOR TREATMENT OF DEPRESSIVE SYNDROME” (Novak, Maja, priority 2010, dated 2011).

For series [1], the system named is women suffering of depressive syndrome. As to the kind of experiment: Controlled study of antidepressant activity, Hamilton rating scale for depression (HAMD test). The format is in vivo. As to the method:
They are divided onto two groups by randomization: • (i) A control group (N = 32) received once-a-day combined (in the same syringe) dose of 20 mg of sulpiride (1; 0.4 mL) diluted with physiological solution (2.0 mL) by subcutaneous injection during three months (90 days).
The duration of administering was three months (90 days; also subcutaneously).
Neurosurg. Psychiatr. […] Psychiatr.
For the 17-item version of HAMD test, scores can range from 0 to 54. […]
The above results were subjected to paired T-test. […] Paired T-test is usually chosen to establish the difference between groups, i.e. their mean values during the Study.
The study was followed by the use of Hamilton rating scale for depression (HAMD test).

The conditions of series [2]: cited from earlier work.

`CCN1CCCC1CNC(=O)c1cc(S(N)(=O)=O)ccc1OC` (racemic) [sulpiride, (R,S)-(±)-5-(aminosulfonyl)-N-[(1-ethylpyrrolidin-2-yl)methyl]-2-methoxybenzamide]: the HAMD in series [1] (After the Study, once-a-day subcutaneous injection, 20 mg of sulpiride, three months (90 days)) amounted to 17.34 ± 8.77; in series [1] (Before the Study (baseline), 17-item HAMD score, range 0 to 54), 18.91 ± 9.19. Further, the “Mean difference (paired T-test, HAMD before vs after the Study)” value in series [1] (once-a-day subcutaneous injection, 20 mg of sulpiride, 90 days) is recorded as 1.60. Moreover, in series [2], the oral bioavailability is on record as 25-35%.
